Results as given in patent US20240002394A1, “DEUTERIUM-MODIFIED THIENOPYRIDONE COMPOUND” (Chia Tai Tianqing Pharmaceutical Group Co., Ltd., priority 2020, published 2024).

Tests used:
[1] = In vitro liver microsomal stability (HLM); type: in vitro ADME, human
Description: (§1) Preparation of liver microsome incubated samples: PBS buffer (pH 7.4), liver microsome solutions (0.5 mg/mL; HLM and MLM, respectively), the test compounds and NADPH+MgCl2 solution were mixed and incubated at 37° C. at 300 rpm for 1 h. Preparation of zero-hour samples: PBS buffer (pH 7.4), liver microsome solutions (0.5 mg/mL; HLM and MLM, respectively) and the test compounds were mixed. An acetonitrile solution containing internal standard was added to the samples, and supernatants were prepared by protein precipitation, diluted and then analyzed by LC/MS/MS.

[2] = target: HPK1 (Homo sapiens (Human), UniProt Q92918); experiment: Assay for in vitro inhibitory activity against HPK1 kinase; type: biochemical; conditions: ATP 0.1 mM; HTRF, STK Substrate 1-biotin; read-out: In vitro inhibitory activity against enzyme HPK1 IC50
Description: The kinase buffer (Enzymatic buffer 5×) was diluted to 1×, and 10 mM MgCl2, 1 mM DTT, and 0.005% Tween 20 were added. The 100 ng/μL HPK1 (Life technology) stock solution was diluted with the kinase buffer to obtain a 1.67×, 1.67 ng/μL working solution (final concentration: 1 ng/μL), and the working solution was seeded in a 384-well plate at 6 μL/well. Different compounds dissolved in DMSO were added to the wells using a nanoliter pipettor to final concentrations of 1000 nM to 0.244 nM (4-fold serial dilution, 7 concentrations in total), and blank control wells (without enzyme) and negative control wells (with enzyme, plus vehicle DMSO) were set; the wells were set in duplicate. After the enzyme and compounds were incubated at room temperature for 1 h, a 5×, 0.5 mM ATP dilution (final concentration: 0.1 mM) in the kinase buffer was mixed with a 5×, 2.5 μM substrate (Cisbio, STK Substrate 1-biotin; final concentration: 500 nM) in equal volume, and the mixture was added to each well at 4 μL/well. The plate was sealed with a film and then incubated at room temperature for 2 h. An assay antibody solution was prepared by mixing the antibody STK Antibody-cryptate (Cisbio, 5 μL/test) and a 4×, 500 nM Streptavidin-XL665 (Cisbio; final concentration: 125 nM) in equal volume and was added to each well at 10 μL/well, and the plate was incubated at room temperature for 1 h. The signal values ([…]) were measured using a PE Envision multi-functional microplate reader, and IC50 was calculated by four-parameter fitting.

[3] = In vitro liver microsomal stability (MLM); type: in vitro ADME, mouse
Description: as §1

[4] = tested on: Jurkat cell p-SLP76 phosphorylation; experiment: Assay for Jurkat cell p-SLP76 phosphorylation inhibitory activity; type: cell-based; conditions: Homo sapiens, 0.5 h; Jurkat cells, CD3CD28 stimulation 30 min; read-out: Jurkat cell p-SLP76 phosphorylation inhibition IC50
Description: The Jurkat cells in a good growth state were added to a centrifuge tube, centrifuged, and resuspended. The cell density was adjusted to 6.25×10^6 cells/mL, and the cells were seeded in a 384-well small-volume white plate at 8 μL/well. Compounds were added in duplicate using a nanoliter pipettor to final concentrations of 2500 nM to 10.29 nM and a control was set. After 1 h of cell culture, the stimulator CD3CD28 (4 μL; manufacturer: Stemcell) was added and the cells were incubated at 37° C. for 30 min. 3 μL of lysis buffer (manufacturer: BioAuxilium) was added to each well, and the plate was shaken at room temperature for 30 min. After the lysate was well mixed, 5 μL of pre-mixed antibody (manufacturer: BioAuxilium) in assay buffer was added and the plate was incubated overnight at room temperature. The signal values were measured on a PerkinElmer Envision multi-functional microplate reader (excitation: 320 nm, emission: 615 nm/665 nm), and IC50 was calculated by four-parameter fitting.

[5] = HLM 0.5 mg/mL, 37° C., NADPH, 60 min
[6] = MLM 0.5 mg/mL, 37° C., NADPH, 60 min

HPK1, sequence (Q92918 whole entry): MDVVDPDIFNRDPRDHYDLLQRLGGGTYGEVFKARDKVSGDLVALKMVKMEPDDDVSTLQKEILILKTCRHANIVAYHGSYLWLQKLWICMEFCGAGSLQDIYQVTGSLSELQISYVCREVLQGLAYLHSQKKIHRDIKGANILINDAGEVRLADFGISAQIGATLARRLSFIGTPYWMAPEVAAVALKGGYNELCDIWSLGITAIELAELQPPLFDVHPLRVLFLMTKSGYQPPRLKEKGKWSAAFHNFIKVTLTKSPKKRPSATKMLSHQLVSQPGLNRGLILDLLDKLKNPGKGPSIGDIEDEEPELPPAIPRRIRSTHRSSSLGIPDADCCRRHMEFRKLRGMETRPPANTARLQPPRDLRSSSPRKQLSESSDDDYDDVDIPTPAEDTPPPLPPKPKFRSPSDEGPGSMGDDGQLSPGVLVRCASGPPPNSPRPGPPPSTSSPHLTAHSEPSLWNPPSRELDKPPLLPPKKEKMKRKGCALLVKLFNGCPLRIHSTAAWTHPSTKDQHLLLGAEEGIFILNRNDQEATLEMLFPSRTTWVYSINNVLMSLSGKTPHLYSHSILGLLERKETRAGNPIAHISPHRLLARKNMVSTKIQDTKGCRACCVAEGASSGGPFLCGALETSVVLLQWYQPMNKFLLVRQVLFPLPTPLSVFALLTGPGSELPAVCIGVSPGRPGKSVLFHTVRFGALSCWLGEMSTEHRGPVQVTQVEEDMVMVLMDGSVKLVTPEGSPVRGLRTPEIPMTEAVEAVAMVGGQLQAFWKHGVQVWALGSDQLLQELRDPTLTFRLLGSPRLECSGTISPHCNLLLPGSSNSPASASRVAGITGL

## [2H]C1([2H])CN(C)CC([2H])([2H])N1c1ccc2[nH]c(-c3c(N)c4ccsc4[nH]c3=O)nc2c1 [Example 4, 4-amino-5-(5-(4-methylpiperazin-1-yl-2,2,6,6-d4)-1H-benzo[d]imidazol-2-yl)thieno[2,3-b]pyridin-6(7H)-one]
[1]; human, microsomes, 1 h, pH 7.4
  HLM (0.5 mg/mL) Remaining percentage (T = 60 min): 88.50%
[2]
  IC50: 9.2 nM
[3]; mouse, microsomes, 1 h, pH 7.4
  MLM (0.5 mg/mL) Remaining percentage (T = 60 min): 42.58%
[4]
  IC50: 83 nM

## [2H]C1([2H])CN(c2ccc3[nH]c(-c4c(N)c5ccsc5[nH]c4=O)nc3c2)CC([2H])([2H])N1C [Example 3, 4-amino-5-(5-(4-methylpiperazin-1-yl-3,3,5,5-d4)-1H-benzo[d]imidazol-2-yl)thieno[2,3-b]pyridin-6(7H)-one]
[1]; [5]
  HLM (0.5 mg/mL) Remaining percentage (T = 60 min): 90.85%
[2]
  IC50: 7.5 nM
[3]; [6]
  MLM (0.5 mg/mL) Remaining percentage (T = 60 min): 45.47%

## [2H]c1cc2c(N)c(-c3nc4c([2H])c(N5CCN(C)CC5)c([2H])cc4[nH]3)c(=O)[nH]c2s1 [Example 5, 4-amino-5-(5-(4-methylpiperazin-1-yl)-1H-benzo[d]imidazol-2-yl-4,6-d2)thieno[2,3-b]pyridin-6(7H)-one-2-d]
[2]
  IC50: 8.8 nM
[4]
  IC50: 53 nM

## [2H]C1([2H])N(C)C([2H])([2H])C([2H])([2H])N(c2ccc3[nH]c(-c4c(N)c5ccsc5[nH]c4=O)nc3c2)C1([2H])[2H] [Example 2, 4-amino-5-(5-(4-methylpiperazin-1-yl-2,2,3,3,5,5,6,6-d8)-1H-benzo[d]imidazol-2-yl)thieno [2,3-b]pyridin-6(7H)-one]
[1]; [5]
  HLM (0.5 mg/mL) Remaining percentage (T = 60 min): 89.66%
[2]
  IC50: 9.7 nM
[3]; [6]
  MLM (0.5 mg/mL) Remaining percentage (T = 60 min): 45.97%
